According to patent US6368788B1 (priority 1987, dated 2002):
Where “and” joins values, the source holds several entries; their conditions need not be identical. Equal values may be shown once. Entries after “also recorded” stand apart in the source; their conditions may differ. Read-outs that look alike come from different tables or passages of the source.

What was measured:
[1] = Post-term women (Protocol D); set-up: species or system human; conditions: in vivo
Experimental: Nineteen patients (19 women) post-term were treated with L-Glu-L-Trp and 48 women received conventional post-term treatment as a control group.

[2] = DTH sensitivity to tuberculin; type: in vivo, guinea pigs
Experimental: In the second study, affects of L-Glu-L-Trp on DTH sensitivity were investigated in guinea pigs sensitized to tuberculin. L-Glu-L-Trp was administered ip at 10 μg/kg or 1000 μg/kg on the day of an intradermal sensitization with tuberculin antigen.

Sarcoma 180 tumor = test: Sarcoma 180 bilateral tumor size; type: in vivo, Swiss-Webster mice; conditions: for Mean Tumor Weight Left / Mean Tumor Weight Right: mean leg weight treated - normal control
Experimental: Anti-tumor activity of L-Glu-L-Trp was evaluated using the murine Sarcoma 180 tumor (ATCC CCL-8 CCRF S-180 II) injected at 2×10^6 cells/0.1 mL im into each rear flank of Swiss-Webster mice. Groups consisted of 10 animals. L-Glu-L-Trp was administered in a single 0.1 mL dose of either 10 μg/kg, 75 μg/kg, 250 μg/kg or 1000 μg/kg. Tumor size was evaluated by surgically removing and weighing the affected limbs, and comparing the weight with the weight of normal control (non-tumor) limbs. The first prophylactic drug regimen (PDR-1) consisted of 5 consecutive daily ip injections commencing on day -5 and ending of day -1. The second prophylactic drug regimen (PDR-2) consisted of 5 consecutive daily im injections to the left rear flank (tumor site) beginning on day -5 and ending on day -1. Sarcoma 180 cells were injected im on day 0. Saline 0.1 mL served as the negative control.

Mycobacterium leprae = type: in vivo, human
hepatitis B = test: Children with chronic persistent hepatitis B; type: in vivo, human; set-up: T-Lymphocytes (E-RFC): unit not given here
Experimental: In accord with a USSR Ministry of Health decision 125 children suffering with chronic persistent hepatitis B were entered into this trial over a two month period. Group 1 consisted of 35 children who received decaris immunomodulatory therapy; Group 2, 38 children who received thymalin treatments; Group 3, […] who received L-Glu-L-Trp; and, Group 4, 32 children who received only conventional symptom specific therapy.
L-Glu-L-Trp was administered at a dose of 2 μg/kg of body mass, im, daily for […], and a repeat (identical) course of treatment was administered 10 days after termination of the first course.

[3] = 10 μg/kg ip on day of tuberculin sensitization
[4] = 1000 μg/kg ip on day of tuberculin sensitization
[5] = Non-Responders, After L-Glu-L-Trp (n = 7)
[6] = Responders, L-Glu-L-Trp Therapy (n = 12)

## L-Glu-L-Trp
[1]
  Clinical outcome: resulting in a normal delivery
[2]; [3]
  Mean Skin Test Diameter ± S.D. Day 10: 14.4 ± 1.3 mm
  Mean Skin Test Diameter ± S.D. Day 20: 15.1 ± 1.4 mm
[2]; [4]
  Mean Skin Test Diameter ± S.D. Day 10: 15.2 ± 1.3 mm
  Mean Skin Test Diameter ± S.D. Day 20: 13.9 ± 1.1 mm
[2]; day 10 or day 20
  DTH response to tuberculin antigen: statistically significant increase in the DTH response
Sarcoma 180 tumor; PDR-1 ip, 10 μg/kg
  Percent of Control Tumor Weight Left: 120%
  Mean Tumor Weight Left: 3.0
  Mean Tumor Weight Right: 2.9
Sarcoma 180 tumor; PDR-1 ip, 75 μg/kg
  Percent of Control Tumor Weight Left: 120%
  Mean Tumor Weight Left: 3.0
  Percent of Control Tumor Weight Right: 130%
  Mean Tumor Weight Right: 3.0
Sarcoma 180 tumor; PDR-1 ip, 250 μg/kg
  Percent of Control Tumor Weight Left: 92%
  Mean Tumor Weight Left: 2.3
  Percent of Control Tumor Weight Right: 83%
  Mean Tumor Weight Right: 1.9
Sarcoma 180 tumor; PDR-1 ip, 1000 μg/kg
  Percent of Control Tumor Weight Left: 52%
  Mean Tumor Weight Left: 1.3
  Percent of Control Tumor Weight Right: 43%
  Mean Tumor Weight Right: 1.0
Sarcoma 180 tumor; PDR-2 im, 10 μg/kg
  Percent of Control Tumor Weight Left: 96%
  Mean Tumor Weight Left: 2.4
  Mean Tumor Weight Right: 2.6
Sarcoma 180 tumor; PDR-2 im, 75 μg/kg
  Percent of Control Tumor Weight Left: 96%
  Mean Tumor Weight Left: 2.4
  Percent of Control Tumor Weight Right: 132%
  Mean Tumor Weight Right: 3.3
Sarcoma 180 tumor; PDR-2 im, 250 μg/kg
  Percent of Control Tumor Weight Left: 72%
  Mean Tumor Weight Left: 1.8
  Percent of Control Tumor Weight Right: 48%
  Mean Tumor Weight Right: 1.1
Sarcoma 180 tumor; PDR-2 im, 1000 μg/kg
  Percent of Control Tumor Weight Left: 48%
  Mean Tumor Weight Left: 1.2
  Percent of Control Tumor Weight Right: 57%
  Mean Tumor Weight Right: 1.3
Sarcoma 180 tumor; prophylactic ip or im, 250 μg/kg and 1000 μg/kg
  Tumor growth: inhibited subsequent im tumor growth
Mycobacterium leprae; 5-7 days
  Mean % responsive PBL (blast cells), Con-A: 22.5 ± 4.0%
  Mean % responsive PBL (blast cells), PHA: 28.7 ± 3.8%
Mycobacterium leprae; in vivo
  Additional decrease in area of ulceration, primary NTU: 23.2% and 22%
  Blast cells responsive to synthetic leprosy antigen: 2.86±0.9%
  Clinical outcome: resolution of dermal leprotic lesions
  Decrease in area of ulceration, primary NTU: 40%
  Decrease in area of ulceration, recurrent ulcers: 22.6%
  EI change versus Before (↓): (↓33%)
  Healing time, primary NTU: 3-6 weeks
  Healing time, secondary recurrent NTU: 4-6 weeks
  Increase of blast responsiveness of patient lymphocytes to Con-A: 1.6 fold
  Increase of blast responsiveness of patient lymphocytes to PHA: 1.8 fold
  Increase of lymphocytes responsive to synthetic leprosy antigen: about 1.6 fold
  Lepromin skin test conversion: four subjects with negative skin tests for lepromin at the beginning of therapy turned positive
  Mean % responsive PBL (blast cells), Con-A: 36.9 ± 1.28%
  Mean % responsive PBL (blast cells), PHA: 22.3 ± 1.43%
  OKT 4 (%): 40.67 ± 1.44% and 43.25 ± 1.91%
  OKT 4/OKT 8: 1.61 ± 0.08 and 1.68 ± 0.32
  OKT 8 (%): 25.56 ± 1.15% and 27.25 ± 3.42%
  OKT 11 (%): 72.22 ± 1.52% and 76.25 ± 0.87%
  Rate of healing, primary NTU: 6.34 mm^2/day
  Rate of healing, recurrent NTU: 5.91 mm^2/day
  Romanovsky Staining: regenerative: lst or 2nd phase; also recorded: regenerative: 2nd or 3rd. phase,; also recorded: regenerative: 3rd. phase/healing;; also recorded: degenerative cells &
Hepatitis B; Group 1, Pre-Treatment ALCT Activity None
  Percent of Subjects Disease Free at 6 Months After Treatment: 100%
Hepatitis B; Group 2, Pre-Treatment ALCT Activity Moderate
  Percent of Subjects Disease Free at 6 Months After Treatment: 80%
Hepatitis B; Group 3, Pre-Treatment ALCT Activity High
  Percent of Subjects Disease Free at 6 Months After Treatment: 0%
Hepatitis B; [5]
  ALCT Cytotoxic Index: 44.55 ± 6.8
  ALCT: % of subjects: 57.14 ± 18.7%
  Ratio OKT4^+/OKT8^+: 0.82 ± 0.07
  T-Lymphocytes (E-RFC): 1382 ± 76 ×10^9
  T-Lymphocytes (E-RFC) % Normal Value: (85%)
  T-Lymphocytes (E-RFC) % of PBL: 56.7 ± 3.24 % of PBL
Hepatitis B; [6]
  ALCT Cytotoxic Index: 50.4 ± 5.5
  ALCT: % of subjects: 16.7 ± 13.2%
  Ratio OKT4^+/OKT8^+: 1.08 ± 0.07
  T-Lymphocytes (E-RFC): 1227 ± 65 ×10^9
  T-Lymphocytes (E-RFC) % Normal Value: (76%)
  T-Lymphocytes (E-RFC) % of PBL: 47.33 ± 2.2 % of PBL
Hepatitis B; highest ALCT levels
  Stable remission over 6 months: 0%
Hepatitis B; in vivo
  Patients with increased E-RFC T-lymphocytes and ADCC decreased to normal (responders): about 63%
Hepatitis B; moderate ALCT activity
  Stable remission over 6 months: 80%
Hepatitis B; patients lacking demonstrable ALCT
  Stable remission over 6 months: One hundred percent
